These results are taken from patent US8895596B2, “Cyclic benzimidazole derivatives useful as anti-diabetic agents” (Merck Sharp & Dohme Corp, priority 2010, dated 2014).

For assay [1], the target named is recombinant human AMPK complex 1 (containing α1β1γ1) (Homo sapiens, UniProt Q13131+Q9Y478). As to the kind of experiment: in vitro AMPK activation assay (AMPKSAMSF). Type of assay: biochemical. Conditions: recombinant human AMPK complex 1 (α1β1γ1); for EC50: table. The method, then:
AMPKSAMSF (in vitro AMPK Activation Assay)
The recombinant human AMPK complex 1 (containing α1β1γ1) was obtained from baculovirus expression system. Recombinant viruses were generated by cotransfection of AMPK/pBacPak9 clones with Baculogold baculovirus DNA (Pharmingen) in spodoptera frugiperda 21 cells according to the manufacturer's instructions. Each round of virus amplification was performed for 5 days in Grace's medium containing 10% serum. Virus that had been subjected to three rounds of amplification was used for all protein production procedures. To express the AMPK complex, sf21 cells were adapted to serum free medium (SF900 II, Invitrogen) by sequential dilution from serum containing stocks into SF900II medium and maintained in shaker flasks at 90 rpm at 27° C. The recombinant AMPK enzyme complex was produced by triple infection, one recombinant virus for each of the subunits, in sf21 cells under serum free conditions. Cells were infected in log phase, 1×10^6 cells/ml, at a multiplicity of infection […] were harvested by centrifugation at 10,000×g for 15 minutes after 72 hours of infection with viruses. The insect cell pellet from 2 liters of culture was resuspended in 50 ml lysis buffer (20 mM Tris-HCl, 50 mM NaCl, 50 mM NaF, 30 mM Na PPi, 0.25 M sucrose, 10 mM ZnCl2, 2 mM DTT, 0.4 mg/ml digitonin) and subjected to two cycles of freeze-thaw lysis in a dry-ice ethanol bath. Insoluble material was removed by centrifugation at 10,000×g and the supernatant was fractionated with use of polyethylene glycol (PEG). The protein fraction precipitating between 2.5 and 6% PEG was used for further purification using a Blue-Sepharose step (Zhou et al, J. Clin. Invest. 108, 1167-1174, 2001).
The in vitro AMPK activation assay is performed in a volume of 30 μl in a 384-well plate. Enzyme reactions were assembled in the microtiter plate by adding 15 μl of 2× enzyme in assay buffer (20 mM HEPES, pH 7.3, 5 mM MgCl2, 3 mM DTT, 0.01% Brij 35 and CamK Kinase, to activate AMPK) to wells which contained either DMSO or compound. The reaction was initiated with the addition of […] substrate mixture containing 200 μM ATP, and 3.0 μM fluorescently labeled SAMS (5-FAM-HMRSAMSGLHLVKRR-COOH) in assay buffer. After 45-minute incubation at 25° C., the reaction was stopped by the addition of 70 μl stop buffer (100 mM HEPES, pH 7.3, 40 mM EDTA, 0.015% Brij 35). Phosphorylated 5-FAM SAMS product is assessed using a Caliper EZ Reader LabChip microfluidics reader. Product conversion is determined by calculating the peak heights of the substrate and product and reporting the product/(product+substrate) peak ratio. The 10-point titration data were expressed as maximum AMP activation. The results were plotted using 4 parameter fit and the inflection point reflecting 50% of the maximum activation was reported as the EC50.

For the next assay, the system named is ob/ob and db/db mice. Conditions: following 8 weeks of administration; cited from earlier work.

recombinant human AMPK complex 1 (containing α1β1γ1), sequence (Q13131 whole entry): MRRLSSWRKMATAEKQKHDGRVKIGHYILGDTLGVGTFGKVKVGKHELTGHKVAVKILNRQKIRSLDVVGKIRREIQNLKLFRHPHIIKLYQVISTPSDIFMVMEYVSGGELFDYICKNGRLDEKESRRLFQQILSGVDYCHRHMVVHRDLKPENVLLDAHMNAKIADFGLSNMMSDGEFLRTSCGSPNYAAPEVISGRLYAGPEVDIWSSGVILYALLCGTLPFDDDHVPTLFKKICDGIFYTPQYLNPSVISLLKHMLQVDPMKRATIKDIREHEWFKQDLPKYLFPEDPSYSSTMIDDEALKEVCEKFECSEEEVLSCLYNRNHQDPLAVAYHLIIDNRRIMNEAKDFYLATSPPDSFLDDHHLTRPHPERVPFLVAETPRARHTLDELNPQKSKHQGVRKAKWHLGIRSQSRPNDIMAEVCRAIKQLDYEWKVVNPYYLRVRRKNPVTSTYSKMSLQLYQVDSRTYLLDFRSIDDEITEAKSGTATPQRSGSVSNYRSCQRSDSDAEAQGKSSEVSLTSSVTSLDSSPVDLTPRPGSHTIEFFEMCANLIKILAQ
recombinant human AMPK complex 1 (containing α1β1γ1), sequence (Q9Y478 whole entry): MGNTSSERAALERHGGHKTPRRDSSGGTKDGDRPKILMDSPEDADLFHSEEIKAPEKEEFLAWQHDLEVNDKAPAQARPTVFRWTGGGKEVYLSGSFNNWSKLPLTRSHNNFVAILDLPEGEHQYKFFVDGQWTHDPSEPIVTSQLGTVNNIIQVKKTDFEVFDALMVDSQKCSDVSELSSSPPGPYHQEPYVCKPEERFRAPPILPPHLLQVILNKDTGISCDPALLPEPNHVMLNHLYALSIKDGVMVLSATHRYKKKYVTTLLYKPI
recombinant human AMPK complex 1 (containing α1β1γ1), sequence (P54619 whole entry partner): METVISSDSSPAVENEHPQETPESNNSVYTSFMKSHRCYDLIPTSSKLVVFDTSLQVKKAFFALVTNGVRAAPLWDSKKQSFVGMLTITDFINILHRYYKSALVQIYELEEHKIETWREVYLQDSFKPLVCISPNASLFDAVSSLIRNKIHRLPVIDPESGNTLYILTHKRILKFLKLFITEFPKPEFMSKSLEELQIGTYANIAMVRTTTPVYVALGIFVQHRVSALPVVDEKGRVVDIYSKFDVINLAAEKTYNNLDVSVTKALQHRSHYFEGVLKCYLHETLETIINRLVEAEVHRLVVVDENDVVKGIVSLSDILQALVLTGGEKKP

Take `O=C(O)C1CC(Oc2nc3c(F)c(-c4ccc(-c5ccccc5)cc4)c(F)cc3[nH]2)C1` (stereo not drawn) [Example 18, 3-{[5-(biphenyl-4-yl)-4,6-difluoro-1H-benzimidazol-2-yl]oxy}cyclobutanecarboxylic acid]: in assay [1], the “% Maximum AMP Activation of human AMPK Complex 1” value (“% Maximum AMP Activation” for short) came out at 538% and the half-maximal effective concentration (EC50) – broadly, the concentration at which the effect is half-maximal – worked out at 14 nM.
Regarding `NC(=O)c1ncn([C@@H]2O[C@H](CO)[C@@H](O)[C@H]2O)c1N` [AICAR], in the assay with ob/ob and db/db mice, the blood glucose reduction is reported as 35%.
With `O=C(O)C1CCC(Oc2nc3c(F)c(-c4ccc(-c5ccccc5)cc4)c(F)cc3[nH]2)C1` (stereo not drawn) [Example 17, 3-{[5-(biphenyl-4-yl)-4,6-difluoro-1H-benzimidazol-2-yl]oxy}cyclopentanecarboxylic acid], in assay [1], the “% Maximum AMP Activation” value was 593% and the EC50 was determined as 13 nM.
Consider `O=C(O)C1CC1COc1nc2c(F)c(-c3ccc(-c4ccccc4)cc3)c(F)cc2[nH]1` (stereo not drawn) [Example 19, 2-({[5-(biphenyl-4-yl)-4,6-difluoro-1H-benzimidazol-2-yl]oxy}methyl)cyclopropane-carboxylic acid], for which, in assay [1], the “% Maximum AMP Activation” value is reported as 631% and the EC50 came out at 17 nM.
Regarding `O=C(O)C1CCCC(Oc2nc3c(F)c(-c4ccc(-c5ccccc5)cc4)c(F)cc3[nH]2)C1` (stereo not drawn) [Example 16, 3-{[5-(biphenyl-4-yl)-4,6-difluoro-1H-benzimidazol-2-yl]oxy}cyclohexanecarboxylic acid], in assay [1], the “% Maximum AMP Activation” value was found to be 617% and the EC50 was 6 nM.
For `O=C(O)C1CCC(Oc2nc3c(F)c(-c4ccc(-c5ccc(C(=O)N6CCC(O)CC6)cc5)cc4)c(F)cc3[nH]2)CC1` (single isomer, unassigned) [Example 20, 4-[(4,6-difluoro-5-{4′-[(4-hydroxypiperidin-1-yl)carbonyl]biphenyl-4-yl}-1H-benzimidazol-2-yl)oxy]cyclohexanecarboxylic acid], in assay [1], the “% Maximum AMP Activation” value is given as 642% and the half-maximal effective concentration (EC50) was determined as 10 nM.
With `O=C(O)C1CCC(Oc2nc3c(F)c(-c4ccc5c(ccn5C5CC5)c4)c(F)cc3[nH]2)CC1` (stereo not drawn) [Example 21, 4-{[5-(1-Cyclopropyl-1H-indol-5-yl)-4,6-difluoro-1H-benzimidazol-2-yl]oxy}cyclohexanecarboxylic acid], in assay [1], the “% Maximum AMP Activation” value is 504% and the EC50 came to 4 nM.
`O=C(O)C1CCC(Oc2nc3c(F)c(-c4ccc(-c5ccccc5)cc4)c(F)cc3[nH]2)CC1` (stereo not drawn) [Example 15, 4-{[5-(biphenyl-4-yl)-4,6-difluoro-1H-benzimidazol-2-yl]oxy}-cyclohexane carboxylic acid]: in assay [1], the “% Maximum AMP Activation” value is given as 653% and the EC50 is 10 nM.
